Here are results for 16 molecules from patent US20190169221A1, “SUBSTITUTED NUCLEOSIDES, NUCLEOTIDES AND ANALOGS THEREOF” (Janssen BioPharma, Inc., priority 2016, published 2019).

The IC50 is the concentration that gives 50% inhibition.

In one test the target is NS5B-BK (Delta-21) (Hepatitis C virus genotype 1b, UniProt P26663). The experiment in a line: biochemical. Further details: species or system HCV.
A further test addresses Dengue viral polymerase (Dengue virus type 2, UniProt P14340). In words: biochemical. To be noted: triphosphates; read-out: Viral Polymerase Inhibition IC50 Dengue.
Test [1] has as its target human rhinovirus 16 polymerase (HRV16pol) (Human rhinovirus 16, UniProt Q82122). In words: Picornavirus polymerase inhibition assay. The format is biochemical. To be noted: triphosphates, read-out: Viral Polymerase Inhibition IC50 Picornavirus. The procedure: The enzyme activity of human rhinovirus 16 polymerase (HRV16pol) was measured as an incorporation of tritiated NMP into acid-insoluble RNA products. hV16pol assay reactions contained […] recombinant enzyme, 50 nM heteropolymeric RNA, about 0.5 μCi tritiated NTP, 0.1 mM of competing cold NTP, 40 mM Tris-HCl (pH 7.0), […] dithiothreitol and 0.5 mM MgCl2. Standard reactions were incubated for 2.5 h at 30° C., in the presence of increasing concentration of inhibitor. At the end of the reaction, RNA was precipitated with 10% TCA and acid-insoluble RNA products were filtered on a size exclusion 96-well plate. After washing of the plate, scintillation liquid was added and radiolabeled RNA products were detected using standard procedures with a Trilux Microbeta scintillation counter. The compound concentration at which the enzyme-catalyzed rate was reduced by 50% (IC50) was calculated by fitting the data to a non-linear regression (sigmoidal).

NS5B-BK (Delta-21), sequence (P26663 2420-2989 limits assumed): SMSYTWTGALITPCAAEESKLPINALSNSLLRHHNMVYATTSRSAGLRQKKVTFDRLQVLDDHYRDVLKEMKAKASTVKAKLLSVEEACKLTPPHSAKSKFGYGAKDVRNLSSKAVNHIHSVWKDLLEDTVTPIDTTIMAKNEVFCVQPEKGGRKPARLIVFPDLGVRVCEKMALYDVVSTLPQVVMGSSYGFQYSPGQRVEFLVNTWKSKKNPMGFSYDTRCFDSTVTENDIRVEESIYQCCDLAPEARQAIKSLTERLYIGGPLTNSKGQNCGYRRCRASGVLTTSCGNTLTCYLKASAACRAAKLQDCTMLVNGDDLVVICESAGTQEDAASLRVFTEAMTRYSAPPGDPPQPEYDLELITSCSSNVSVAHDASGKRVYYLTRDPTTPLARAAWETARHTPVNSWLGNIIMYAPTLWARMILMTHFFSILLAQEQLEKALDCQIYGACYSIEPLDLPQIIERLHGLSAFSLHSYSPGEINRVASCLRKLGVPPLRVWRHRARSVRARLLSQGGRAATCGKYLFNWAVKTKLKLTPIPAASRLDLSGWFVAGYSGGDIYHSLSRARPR
human rhinovirus 16 polymerase (HRV16pol), sequence (Q82122 1694-2153 limits assumed): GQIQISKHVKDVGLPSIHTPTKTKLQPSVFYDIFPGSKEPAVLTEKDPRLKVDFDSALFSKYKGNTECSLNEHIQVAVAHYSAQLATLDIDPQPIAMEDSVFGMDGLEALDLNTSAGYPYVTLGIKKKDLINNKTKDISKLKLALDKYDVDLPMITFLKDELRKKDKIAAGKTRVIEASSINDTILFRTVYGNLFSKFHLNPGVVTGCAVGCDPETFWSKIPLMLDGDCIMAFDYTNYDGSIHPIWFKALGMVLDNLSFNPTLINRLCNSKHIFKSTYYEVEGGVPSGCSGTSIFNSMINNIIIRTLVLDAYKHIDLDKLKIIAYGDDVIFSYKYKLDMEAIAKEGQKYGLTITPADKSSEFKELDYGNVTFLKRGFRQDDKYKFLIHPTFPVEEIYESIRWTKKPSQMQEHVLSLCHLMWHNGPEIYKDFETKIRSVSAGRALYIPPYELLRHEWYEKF

In the case of `C#C[C@@]1(O)[C@H](O)[C@@H](COP(=O)(O)OP(=O)(O)OP(=O)(O)O)O[C@H]1n1cnc2c(N)nc(F)nc21` [Compound 17], the IC50 on NS5B-BK (Delta-21) was below 3 µM; at Dengue viral polymerase, 3 to 30 µM; in test [1], below 3 µM.

For `C#C[C@@]1(O)[C@H](O)[C@@H](COP(=O)(O)OP(=O)(O)OP(=O)(O)O)O[C@H]1n1cnc2c(N)nc(N)nc21` [Compound 18], the half-inhibitory concentration (IC50) was below 3 µM against NS5B-BK (Delta-21), 3 to 30 µM at Dengue viral polymerase and below 3 µM in test [1].

`C#C[C@]1(O)[C@H](n2ccc3c(N)ncnc32)O[C@](F)(COP(=O)(O)OP(=O)(O)OP(=O)(O)O)[C@H]1O` [Compound 19]: the IC50 against NS5B-BK (Delta-21) is below 3 µM; on Dengue viral polymerase, 3 to 30 µM; in test [1], below 3 µM.

With `C[C@]1(O)[C@H](n2cnc3c(N)ncnc32)O[C@](F)(COP(=O)(O)OP(=O)(O)OP(=O)(O)O)[C@H]1O` [Compound 20], the IC50 on NS5B-BK (Delta-21) is below 3 µM; on Dengue viral polymerase it was 3 to 30 µM; in test [1] it was below 3 µM.

As for `C[C@]1(F)[C@H](n2cnc3c(N)nc(N)nc32)O[C@](F)(COP(=O)(O)OP(=O)(O)OP(=O)(O)O)[C@H]1O` [Compound 21], the IC50 against NS5B-BK (Delta-21) was below 3 µM; at Dengue viral polymerase, 30 to 100 µM; in test [1], below 3 µM.

In the case of `C[C@]1(F)[C@H](n2cnc3c(N)ncnc32)O[C@](F)(COP(=O)(O)OP(=O)(O)OP(=O)(O)O)[C@H]1O` [Compound 22], the IC50 was below 3 µM on NS5B-BK (Delta-21), 3 to 30 µM on Dengue viral polymerase and below 3 µM in test [1].

Regarding `C#C[C@]1(O)[C@H](n2cnc3c(N)ncnc32)O[C@](F)(COP(=O)(O)OP(=O)(O)OP(=O)(O)O)[C@H]1O` [Compound 23], the IC50 (against NS5B-BK (Delta-21); on Dengue viral polymerase; in test [1]) was below 3 µM each time.

Take `C=C=C[C@@]1(O)[C@H](O)[C@@H](COP(=O)(O)OP(=O)(O)OP(=O)(O)O)O[C@H]1n1cnc2c(N)ncnc21` [Compound 25]: the half-maximal inhibitory concentration (IC50) against NS5B-BK (Delta-21) is below 3 µM; at Dengue viral polymerase it was 3 to 30 µM; in test [1] it was 3 to 30 µM.

On to `C#C[C@@]1(O)[C@H](O)[C@@H](COP(=O)(O)OP(=O)(O)OP(=O)(O)O)O[C@H]1n1cnc2c(=O)[nH]cnc21` [Compound 35], for which the concentration for half-maximal inhibition (IC50) is below 3 µM against NS5B-BK (Delta-21), below 3 µM at Dengue viral polymerase and above 100 µM in test [1].

With `C#C[C@]1(O)[C@H](n2cc(C#N)c3c(N)ncnc32)O[C@](F)(COP(=O)(O)OP(=O)(O)OP(=O)(O)O)[C@H]1O` [Compound 45], the IC50 (against NS5B-BK (Delta-21); on Dengue viral polymerase; in test [1]) was below 3 µM throughout.

Regarding `C#C[C@]1(O)[C@H](n2cc(C(N)=O)c3c(N)ncnc32)O[C@](F)(COP(=O)(O)OP(=O)(O)OP(=O)(O)O)[C@H]1O` [Compound 50], the half-inhibitory concentration (IC50) is 3 to 30 µM at NS5B-BK (Delta-21), below 3 µM on Dengue viral polymerase and below 3 µM in test [1].

As for `C#C[C@]1(O)[C@H](n2cc(F)c3c(N)ncnc32)O[C@](F)(COP(=O)(O)OP(=O)(O)OP(=O)(O)O)[C@H]1O` [Compound 51], the concentration for half-maximal inhibition (IC50) (against NS5B-BK (Delta-21); on Dengue viral polymerase; in test [1]) was below 3 µM each time.

For `C#C[C@@]1(O)[C@H](O)[C@@H](COP(=O)(O)OP(=O)(O)OP(=O)(O)O)O[C@H]1c1ccc2c(N)ncnn12` [Compound 52], the half-inhibitory concentration (IC50) (on NS5B-BK (Delta-21); at Dengue viral polymerase; in test [1]) was below 3 µM in each case.

Regarding `C#C[C@@]1(O)[C@H](O)[C@@H](COP(=O)(O)OP(=O)(O)OP(=O)(O)O)O[C@H]1c1cnc2c(N)ncnn12` [Compound 53], the IC50 against NS5B-BK (Delta-21) was below 3 µM; on Dengue viral polymerase, 3 to 30 µM; in test [1], below 3 µM.

Consider `C#C[C@@]1(F)[C@H](O)[C@@H](COP(=O)(O)OP(=O)(O)OP(=O)(O)O)O[C@H]1c1cnc2c(N)ncnn12` [Compound 54], for which the IC50 against NS5B-BK (Delta-21) was below 3 µM; on Dengue viral polymerase, 30 to 100 µM; in test [1], 30 to 100 µM.

For `C#C[C@]1(O)[C@H](n2cnc3c(=O)[nH]cnc32)O[C@](F)(COP(=O)(O)OP(=O)(O)OP(=O)(O)O)[C@H]1O` [Compound 56], the half-inhibitory concentration (IC50) is below 3 µM on NS5B-BK (Delta-21), 3 to 30 µM on Dengue viral polymerase and below 3 µM in test [1].
